How the values were obtained:
Format in all cases: cell-based
CFTR-S549N = target: T1, CFTR-S549N (Homo sapiens, UniProt P13569, S549N); test: YFP-halide influx assay for the CFTR-S549N
T1 construct: expressed in transfected cells
Text: (§1) The YFP halide influx assay measures the functionality of the cystic fibrosis Transmembrane Conductance regulator (CFTR) channels. The assay is used to evaluate the capacity of compounds to increase the channel opening of existing mutant CFTR channels in the membrane. It makes use of the observation that the yellow fluorescent protein (YFP) variant YFP H148Q, I152L, […] has its fluorescence substantially quenched by halide ions like Cl^− and I^−. (Galietta, Haggie, & Verkman, 2001)
(§2) For this purpose, HEK293-cells are seeded in 96 well plates. During seeding, the cells are reverse-transfected with plasmid vectors that direct the expression of the CFTR G551D mutant and of the YFP reporter. Cells are incubated at 37° C., 5% CO2 for 24 hours so as to allow for sufficient expression of the CFTR protein.
(§3) The I^−-induced quenching of fluorescence is recorded immediately after injection of I^− for 7 seconds. The capacity of a compound to increase the channel opening is directly correlated with the decrease in fluorescence, and is expressed as (1-(fluorescence after 7 seconds (F)/fluorescence before injection (F0))) and an EC50 can be derived from a (1-F/F0) vs compound concentration plot.
(§4) Similar YHA assays were developed for other channel gating defective or channel conductance defective CFTR mutants to determine effect of compound on channel activity. Examples of mutants are G178R, G1349D, S549N, R117H, R334W. This assay is also used for additional class I CFTR mutants, including G542X, W1282X; class II mutants including N1303K, and for class III mutants including S1251N.

CFTR-R117H = target: T2, CFTR-R117H (Homo sapiens, UniProt P13569, R117H); test: YFP-halide influx assay for the CFTR-R117H
T2 construct: expressed in transfected cells
T2 sequence (P13569 whole entry R117H): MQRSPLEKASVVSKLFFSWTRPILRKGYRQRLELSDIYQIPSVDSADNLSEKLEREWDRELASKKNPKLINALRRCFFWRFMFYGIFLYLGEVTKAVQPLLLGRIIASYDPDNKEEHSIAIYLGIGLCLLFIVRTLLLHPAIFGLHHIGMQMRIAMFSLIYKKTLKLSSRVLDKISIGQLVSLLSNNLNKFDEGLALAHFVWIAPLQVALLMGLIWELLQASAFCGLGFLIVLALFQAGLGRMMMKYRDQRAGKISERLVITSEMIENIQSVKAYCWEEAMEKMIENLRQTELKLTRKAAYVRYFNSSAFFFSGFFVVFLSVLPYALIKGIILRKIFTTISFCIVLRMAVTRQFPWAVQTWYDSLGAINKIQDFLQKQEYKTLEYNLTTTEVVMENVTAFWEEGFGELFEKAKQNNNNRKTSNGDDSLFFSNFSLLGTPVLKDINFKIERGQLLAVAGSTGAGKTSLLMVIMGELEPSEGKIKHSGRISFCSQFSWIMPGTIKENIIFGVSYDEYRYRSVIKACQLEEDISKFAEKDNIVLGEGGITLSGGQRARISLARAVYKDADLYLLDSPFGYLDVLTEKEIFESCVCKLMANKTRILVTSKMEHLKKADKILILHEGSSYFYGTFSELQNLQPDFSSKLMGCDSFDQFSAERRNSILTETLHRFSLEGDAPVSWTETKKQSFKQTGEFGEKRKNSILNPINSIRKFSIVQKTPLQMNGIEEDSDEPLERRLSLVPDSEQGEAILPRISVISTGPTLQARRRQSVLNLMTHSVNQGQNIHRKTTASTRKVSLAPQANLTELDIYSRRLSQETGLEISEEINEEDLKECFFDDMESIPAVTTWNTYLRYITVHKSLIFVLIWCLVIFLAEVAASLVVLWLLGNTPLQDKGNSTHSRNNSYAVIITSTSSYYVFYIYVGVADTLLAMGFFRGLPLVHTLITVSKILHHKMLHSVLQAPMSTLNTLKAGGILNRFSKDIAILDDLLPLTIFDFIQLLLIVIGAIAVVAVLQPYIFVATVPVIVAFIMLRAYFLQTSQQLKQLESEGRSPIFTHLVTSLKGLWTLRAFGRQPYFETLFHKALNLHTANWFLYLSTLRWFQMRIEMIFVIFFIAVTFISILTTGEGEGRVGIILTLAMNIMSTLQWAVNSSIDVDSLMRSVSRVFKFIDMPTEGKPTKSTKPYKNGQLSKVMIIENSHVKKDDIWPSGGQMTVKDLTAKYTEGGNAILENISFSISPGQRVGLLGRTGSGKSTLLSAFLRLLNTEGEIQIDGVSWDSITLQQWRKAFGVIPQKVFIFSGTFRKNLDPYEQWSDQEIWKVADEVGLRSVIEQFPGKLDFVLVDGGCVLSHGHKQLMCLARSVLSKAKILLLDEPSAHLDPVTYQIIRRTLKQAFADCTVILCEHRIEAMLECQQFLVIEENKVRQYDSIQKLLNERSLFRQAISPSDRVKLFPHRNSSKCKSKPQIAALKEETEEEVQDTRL
Text: as §1, §2, §3, §4

CFTR-G1349D = target: T3, CFTR-G1349D (Homo sapiens, UniProt P13569, G1349D); test: YFP-halide influx assay for the CFTR-G1349D
T3 construct: expressed in transfected cells
T3 sequence (P13569 whole entry G1349D): as the sequence (P13569 whole entry R117H) above, with H117R, G1349D counted along it
Text: as §1, §2, §3, §4

CFTR-G178R = target: T4, CFTR-G178R (Homo sapiens, UniProt P13569, G178R); test: YFP-halide influx assay for the CFTR-G178R
T4 construct: expressed in transfected cells
T4 sequence (P13569 whole entry G178R): as the sequence (P13569 whole entry R117H) above, with H117R, G178R counted along it
Text: as §1, §2, §3, §4

CFTR G551D mutant = target: T5, CFTR G551D mutant (Homo sapiens, UniProt P13569, G551D); test: YFP-halide influx assay for the CFTR-G551D mutation; settings: HEK293 cells, forskolin 10.67 μM
T5 construct: expressed in transfected cells; host or cells: HEK293 (reverse transfection with plasmid)
T5 sequence (P13569 whole entry G551D): as the sequence (P13569 whole entry R117H) above, with H117R, G551D counted along it
In short: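 Channel opening potentiation measured as 1−F/F0, where F is YFP fluorescence 7 s after iodide injection and F0 before; EC50 taken from concentration plot. Cells: HEK293 transiently expressing CFTR G551D plus halide-sensitive YFP (H148Q, I152L, F47L), 24 h at 37 °C, 5% CO2.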

CFTR ΔF508 mutant = target: T6, CFTR ΔF508 mutant (Homo sapiens, UniProt P13569, DEL508-508); test: YFP-halide influx assay for the CFTR-ΔF508 mutation (384 well, FDSS/μCell); settings: CFBE41o- cells, CFTR-ΔF508, 1×D-PBS, fluorescence after 36 seconds
T6 construct: expressed in transfected cells; host or cells: CFBE41o- (adenoviral transduction)
T6 sequence (P13569 with tags, fused parts or gaps DEL508-508): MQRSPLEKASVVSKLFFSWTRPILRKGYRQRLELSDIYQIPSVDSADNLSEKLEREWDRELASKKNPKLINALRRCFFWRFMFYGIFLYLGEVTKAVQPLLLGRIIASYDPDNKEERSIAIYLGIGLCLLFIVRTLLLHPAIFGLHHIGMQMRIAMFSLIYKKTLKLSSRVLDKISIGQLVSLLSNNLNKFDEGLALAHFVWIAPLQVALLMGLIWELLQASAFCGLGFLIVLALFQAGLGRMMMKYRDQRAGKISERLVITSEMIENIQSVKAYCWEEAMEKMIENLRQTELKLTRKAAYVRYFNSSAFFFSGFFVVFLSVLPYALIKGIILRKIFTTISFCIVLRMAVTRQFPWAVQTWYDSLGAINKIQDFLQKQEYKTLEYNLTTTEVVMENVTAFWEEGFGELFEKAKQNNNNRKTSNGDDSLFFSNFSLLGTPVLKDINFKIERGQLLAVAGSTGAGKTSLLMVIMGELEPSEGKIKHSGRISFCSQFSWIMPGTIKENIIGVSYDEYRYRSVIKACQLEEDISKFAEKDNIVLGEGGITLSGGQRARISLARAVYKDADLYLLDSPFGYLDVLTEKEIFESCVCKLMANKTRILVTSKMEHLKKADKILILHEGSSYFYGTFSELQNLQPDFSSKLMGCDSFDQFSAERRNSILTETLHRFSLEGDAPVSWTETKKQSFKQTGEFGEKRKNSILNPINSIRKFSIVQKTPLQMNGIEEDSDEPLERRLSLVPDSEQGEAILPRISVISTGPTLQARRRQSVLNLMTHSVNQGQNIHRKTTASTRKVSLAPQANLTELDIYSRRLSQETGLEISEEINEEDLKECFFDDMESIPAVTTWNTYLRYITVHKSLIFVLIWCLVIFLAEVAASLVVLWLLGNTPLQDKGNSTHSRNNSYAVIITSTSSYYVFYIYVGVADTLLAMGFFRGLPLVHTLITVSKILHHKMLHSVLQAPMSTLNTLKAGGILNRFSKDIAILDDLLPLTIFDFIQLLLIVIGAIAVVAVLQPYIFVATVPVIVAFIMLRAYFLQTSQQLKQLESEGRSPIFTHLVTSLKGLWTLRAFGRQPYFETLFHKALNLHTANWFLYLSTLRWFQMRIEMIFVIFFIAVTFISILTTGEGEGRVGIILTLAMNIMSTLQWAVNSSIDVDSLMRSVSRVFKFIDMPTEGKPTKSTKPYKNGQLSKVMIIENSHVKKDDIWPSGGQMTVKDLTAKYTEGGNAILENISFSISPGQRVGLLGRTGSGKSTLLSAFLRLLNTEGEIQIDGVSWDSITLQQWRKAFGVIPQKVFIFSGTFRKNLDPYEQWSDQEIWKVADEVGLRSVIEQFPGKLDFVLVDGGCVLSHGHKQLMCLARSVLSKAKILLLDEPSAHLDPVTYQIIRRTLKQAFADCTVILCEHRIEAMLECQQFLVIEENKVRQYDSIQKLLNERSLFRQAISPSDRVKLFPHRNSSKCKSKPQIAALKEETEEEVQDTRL
In short: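 Potentiator read-out as 1−F/F0, F taken 36 s after iodide addition, EC50 fitted against compound concentration. Cells: CFBE41o- expressing ΔF508 CFTR plus halide-sensitive YFP via adenovirus, rescued by 27 °C for 24 h or 24 h modulator at 37 °C.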

T1 sequence (P13569 whole entry S549N): as the sequence (P13569 whole entry R117H) above, with H117R, S549N counted along it

SMILES | EC50 (CFTR-S549N) | EC50 (CFTR-R117H) | EC50 (CFTR-G1349D) | EC50 (CFTR-G178R) | EC50 (CFTR G551D mutant) | EC50 (CFTR ΔF508 mutant)
NC(=O)c1cc(S(=O)(=O)c2ccccc2OC(F)(F)F)sc1NC(=O)C1(CO)CC1 [Compound 320, 2-[(1-Hydroxymethyl-cyclopropanecarbonyl)-amino]-5-(2-trifluoromethoxy-benzenesulfonyl)-thiophene-3-carboxylic acid amide] | 0.131 µM | 0.0877 µM | 0.0316 µM | 0.0562 µM | 0.0973 µM | 0.0129 µM
CC(C)(O)C(=O)Nc1sc(S(=O)(=O)c2cc(F)ccc2Br)cc1C(N)=O [Compound 323, 5-(2-Bromo-5-fluoro-benzenesulfonyl)-2-(2-hydroxy-2-methyl-propionylamino)-thiophene-3-carboxylic acid amide] | 1.51 µM | 0.342 µM | 0.459 µM | 0.189 µM | 0.227 µM | 0.0094 µM
CC(O)C(=O)Nc1sc(S(=O)(=O)c2ccc(F)cc2C(F)(F)F)cc1C(N)=O (stereo not drawn) [Compound 325, 5-[4-fluoro-2-(trifluoromethyl)phenyl] sulfonyl-2-(2-hydroxypropanoylamino) thiophene-3-carboxamide] | 2.14 µM | 0.793 µM | 2.57 µM | 1.88 µM | 2.79 µM | 0.0111 µM
CC(O)C(=O)Nc1sc(S(=O)(=O)c2ccc(F)cc2Cl)cc1C(N)=O (stereo not drawn) [Compound 329, 5-(2-chloro-4-fluoro-phenyl) sulfonyl-2-(2-hydroxypropanoylamino) thiophene-3-carboxamide] | 2.69 µM | 0.851 µM | 2.05 µM | 1.68 µM | 1.4 µM | 0.0232 µM
C[C@H](O)C(=O)Nc1sc(S(=O)(=O)c2ccc(OC(F)(F)F)cc2)cc1C(N)=O [Compound 331, 2-[[(2S)-2-hydroxypropanoyl]amino]-5-[4-(trifluoromethoxy)phenyl] sulfonyl-thiophene-3-carboxamide] | 0.522 µM | 0.095 µM | 0.117 µM | 0.0677 µM | 0.561 µM | 0.008 µM
CC(O)C(=O)Nc1sc(S(=O)(=O)c2cc(F)ccc2Cl)cc1C(N)=O (stereo not drawn) [Compound 333, 5-(2-chloro-5-fluoro-phenyl)sulfonyl-2-(2-hydroxypropanoylamino) thiophene-3-carboxamide] | 0.547 µM | 0.467 µM | 0.847 µM | 0.62 µM | 0.754 µM | 0.0126 µM
CC(O)C(=O)Nc1sc(S(=O)(=O)c2cc(F)ccc2CC(F)(F)F)cc1C(N)=O (stereo not drawn) [Compound 334, 5-[5-fluoro-2-(2,2,2-trifluoroethyl)phenyl] sulfonyl-2-(2-hydroxypropanoylamino) thiophene-3-carboxamide] | 0.336 µM | 0.118 µM | 0.0477 µM | 0.0445 µM | 0.15 µM | 0.0037 µM
CC(C)(O)C(=O)Nc1sc(S(=O)(=O)c2cc(F)ccc2Cl)cc1C(N)=O [Compound 337, 5-(2-chloro-5-fluoro-phenyl)sulfonyl-2-[(2-hydroxy-2-methyl-propanoyl)amino] thiophene-3-carboxamide] | 0.107 µM | 0.0563 µM | 0.0487 µM | 0.0272 µM | 0.879 µM | 0.0055 µM
CC(CO)C(=O)Nc1sc(S(=O)(=O)c2ccc(F)cc2Cl)cc1C(N)=O (stereo not drawn) [Compound 360, 5-(2-chloro-4-fluoro-phenyl)sulfonyl-2-[(3-hydroxy-2-methyl-propanoyl)amino] thiophene-3-carboxamide] | 0.188 µM | 0.0493 µM | 0.223 µM | 0.123 µM | 0.635 µM | 0.00955 µM

— patent US9382254B2, “Compounds and pharmaceutical compositions thereof for the treatment of cystic fibrosis” (Galapagos NV, priority 2013, dated 2016)
